The values that follow are results of earlier work, collected in patent US11331329B2, “Fucosylated oligosaccharides for prevention of coronavirus infection” (Glycosyn LLC, priority 2020, dated 2022).

The conditions of this data set: oral.

Regarding 2′-Fucosyllactose [2′-FL], the toxicity result (natural component of human milk) was “non-toxic”. Where the note is “adult”, the “high doses that may lead to mild gut discomfort and a reversible osmotic diarrhea” value is > 10 g per day.
